Measurements reported in PubChem BioAssay AID256 (DTP/NCI, 2004).
“And” between values parts separate entries of the source, which are not always exact repeats. Equal values may be shown once. Toxic doses and inconclusive results are not listed. The calls were made as follows: active = survival T/C of 150% or more; inactive = T/C below 125% in these data.

Test system: CD2F1 mice, L1210 leukemia ip, survival T/C
Assay: NCI In Vivo Anticancer Drug Screen. Data for tumor model L1210 Leukemia (intraperitoneal) in CD2F1 (CDF1) mice
Settings: endpoint: mean survival time, higher = longer survival
Outline: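 Compound-dosed mice with transplantable tumor versus matched vehicle controls; endpoint ratio T/C reported.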

[1] = dose: 100.0 mg/kg/injection, schedule: Q01DX009 (ip), vehicle: saline
[2] = dose: 200.0 mg/kg/injection, schedule: Q01DX009 (ip), vehicle: saline
[3] = dose: 100.0 mg/kg/injection, schedule: Q04DX003 (ip), vehicle: saline with Tween-80
[4] = dose: 200.0 mg/kg/injection, schedule: Q04DX003 (ip), vehicle: saline with Tween-80
[5] = dose: 400.0 mg/kg/injection, schedule: Q04DX003 (ip), vehicle: saline with Tween-80
[6] = dose: 100.0 mg/kg/injection, schedule: Q01DX001 (ip), vehicle: saline
[7] = dose: 200.0 mg/kg/injection, schedule: Q01DX001 (ip), vehicle: saline
[8] = dose: 400.0 mg/kg/injection, schedule: Q01DX001 (ip), vehicle: saline
[9] = dose: 100.0 mg/kg/injection, schedule: Q04DX003 (ip), vehicle: Klucel (hydroxypropylcellulose) (HPC)
[10] = dose: 100.0 mg/kg/injection, schedule: Q01DX009 (ip), vehicle: saline with Tween-80
[11] = dose: 25.0 mg/kg/injection, schedule: Q01DX009 (ip), vehicle: saline with Tween-80
[12] = dose: 25.0 mg/kg/injection, schedule: Q04DX003 (ip), vehicle: saline with Tween-80
[13] = dose: 50.0 mg/kg/injection, schedule: Q01DX009 (ip), vehicle: saline with Tween-80
[14] = dose: 50.0 mg/kg/injection, schedule: Q04DX003 (ip), vehicle: saline with Tween-80
[15] = dose: 400.0 mg/kg/injection, schedule: Q01DX009 (ip), vehicle: saline

Measured: T/C

Cc1ccc(C(=O)OCCN2CCOCC2)c([N+](=O)[O-])c1OCc1ccccc1
inactive: dose: 100.0 mg/kg/injection, schedule: Q04DX002 (ip), vehicle: other 94 % of control | dose: 200.0 mg/kg/injection, schedule: Q04DX002 (ip), vehicle: other 103 % of control | dose: 400.0 mg/kg/injection, schedule: Q04DX002 (ip), vehicle: other 91 % of control

CC1(C)N=C(N)N=C(N)N1c1ccc(OCCCNC(=O)Nc2cccc(S(=O)(=O)F)c2)c(Cl)c1
inactive: [1] 116 % of control | [2] 92 % of control

CN(C)c1nnc(N(C)C)s1
inactive: [3] 100 % of control | [4] 98 % of control | [5] 98 % of control

CC1(C)N=C(N)N=C(N)N1c1ccc(CC(=O)Nc2ccc(S(=O)(=O)F)cc2)cc1
inactive: [6] 102 % of control | [7] 97 % of control | [8] 96 % of control

S=c1[nH]c2cc(Cl)c(Cl)cc2[nH]1
inactive: [6] 100 % of control | [7] 100 % of control | [8] 102 % of control

C1=NOC2c3ccc4ccccc4c3CCC12 (stereo not given)
inactive: [9] 100 % of control | dose: 200.0 mg/kg/injection, schedule: Q04DX003 (ip), vehicle: Klucel (hydroxypropylcellulose) (HPC) 101 % of control | dose: 400.0 mg/kg/injection, schedule: Q04DX003 (ip), vehicle: Klucel (hydroxypropylcellulose) (HPC) 107 % of control

OCNC(=S)c1c(Cl)cccc1Cl
inactive: [10] 98 % of control | dose: 200.0 mg/kg/injection, schedule: Q01DX009 (ip), vehicle: saline with Tween-80 102 % of control

Cn1c(=O)c2c(ncn2CCCNCC(O)c2ccc(O)c(CO)c2)n(C)c1=O (stereo not given)
inactive: dose: 12.5 mg/kg/injection, schedule: Q01DX005 (ip), vehicle: water 96 % of control | dose: 25.0 mg/kg/injection, schedule: Q01DX005 (ip), vehicle: water 96 % of control | dose: 50.0 mg/kg/injection, schedule: Q01DX005 (ip), vehicle: water 100 % of control | dose: 100.0 mg/kg/injection, schedule: Q01DX005 (ip), vehicle: water 96 % of control | dose: 200.0 mg/kg/injection, schedule: Q01DX005 (ip), vehicle: water 98 % of control

CN(C)C(=S)NN
inactive: dose: 1.5 mg/kg/injection, schedule: Q01DX001 (ip), vehicle: saline 92 % of control | dose: 3.0 mg/kg/injection, schedule: Q01DX001 (ip), vehicle: saline 97 % of control | dose: 6.0 mg/kg/injection, schedule: Q01DX001 (ip), vehicle: saline 97 % of control

C#CCOc1ccccc1O
inactive: dose: 100.0 mg/kg/injection, schedule: Q04DX003 (ip), vehicle: acetone 101 % of control | dose: 200.0 mg/kg/injection, schedule: Q04DX003 (ip), vehicle: acetone 103 % of control | dose: 400.0 mg/kg/injection, schedule: Q04DX003 (ip), vehicle: acetone 95 % of control

O=C(O)c1cccc2[nH]c(=O)oc(=O)c12
inactive: [3] 103 % of control | [4] 95 % of control | [5] 93 % of control

CNC(=O)OC(C)CC(O)(C(F)(F)F)C(F)(F)F (stereo not given)
inactive: [11] 97 % of control | [12] 96 % of control | [13] 101 % of control | [14] 98 % of control | [10] 98 % of control | [9] 96 % of control | [3] 98 % of control

CCN(CC)CCNc1nc(-c2cc(C(F)(F)F)cc(C(F)(F)F)c2)nc(C(Cl)(Cl)Cl)n1
inactive: dose: 100.0 mg/kg/injection, schedule: Q01DX005 (ip), vehicle: saline 100 % of control | [1] 93 % of control | dose: 200.0 mg/kg/injection, schedule: Q01DX005 (ip), vehicle: saline 103 % of control | [2] 93 % of control | dose: 400.0 mg/kg/injection, schedule: Q01DX005 (ip), vehicle: saline 95 % of control | [15] 93 % of control

COc1ccc2c(c1)CCc1cn[nH]c1-2
inactive: [6] 101 % of control | dose: 100.0 mg/kg/injection, schedule: Q04DX003 (ip), vehicle: saline 106 % of control | [7] 103 % of control | dose: 200.0 mg/kg/injection, schedule: Q04DX003 (ip), vehicle: saline 106 % of control | [8] 98 % of control | dose: 400.0 mg/kg/injection, schedule: Q04DX003 (ip), vehicle: saline 100 % of control

N#CCS(=O)(=O)c1ccccc1
inactive: dose: 12.5 mg/kg/injection, schedule: Q01DX001 (ip), vehicle: saline with Tween-80 95 % of control | dose: 25.0 mg/kg/injection, schedule: Q01DX001 (ip), vehicle: saline with Tween-80 98 % of control | dose: 50.0 mg/kg/injection, schedule: Q01DX001 (ip), vehicle: saline with Tween-80 96 % of control and 98 % of control

CN(C(=O)CCC(=O)N(C)c1ccccc1)c1ccccc1
inactive: dose: 100.0 mg/kg/injection, schedule: Q01DX001 (ip), vehicle: saline with Tween-80 103 % of control | dose: 200.0 mg/kg/injection, schedule: Q01DX001 (ip), vehicle: saline with Tween-80 92 % of control | dose: 400.0 mg/kg/injection, schedule: Q01DX001 (ip), vehicle: saline with Tween-80 92 % of control

CS(=O)(=O)c1nnc(S(C)(=O)=O)s1
inactive: dose: 3.0 mg/kg/injection, schedule: Q01DX009 (ip), vehicle: saline sonified 104 % of control | dose: 6.0 mg/kg/injection, schedule: Q01DX009 (ip), vehicle: saline sonified 102 % of control | dose: 12.0 mg/kg/injection, schedule: Q01DX009 (ip), vehicle: saline sonified 113 % of control | dose: 12.5 mg/kg/injection, schedule: Q04DX003 (ip), vehicle: saline sonified 104 % of control

N#CC1C(=O)c2ccccc2C1=O
inactive: [12] 91 % of control | [14] 93 % of control | [3] 93 % of control

NC(=O)c1c(N)sc2c1CCCC2
inactive: dose: 6.25 mg/kg/injection, schedule: Q01DX009 (ip), vehicle: saline with Tween-80 96 % of control | dose: 6.25 mg/kg/injection, schedule: Q04DX003 (ip), vehicle: saline with Tween-80 107 % of control | dose: 12.5 mg/kg/injection, schedule: Q01DX009 (ip), vehicle: saline with Tween-80 93 % of control | dose: 12.5 mg/kg/injection, schedule: Q04DX003 (ip), vehicle: saline with Tween-80 102 % of control | [11] 95 % of control | [12] 100 % of control

COc1ccc(OC)c(C2C(C#N)C(C=O)NC(C=O)C2C#N)c1 (stereo not given)
inactive: dose: 100.0 mg/kg/injection, schedule: Q01DX009 (ip), vehicle: other 100 % of control | dose: 200.0 mg/kg/injection, schedule: Q01DX009 (ip), vehicle: other 104 % of control | dose: 400.0 mg/kg/injection, schedule: Q01DX009 (ip), vehicle: other 100 % of control

C=CCc1cn(C2CC(O)C(CO)O2)c(=O)[nH]c1=O (stereo not given)
inactive: dose: 12.5 mg/kg/injection, schedule: Q01DX009 (ip), vehicle: saline 94 % of control and 104 % of control | dose: 25.0 mg/kg/injection, schedule: Q01DX009 (ip), vehicle: saline 101 % of control and 107 % of control | dose: 50.0 mg/kg/injection, schedule: Q01DX009 (ip), vehicle: saline 95 % of control and 108 % of control | [1] 103 % of control and 110 % of control | [2] 104 % of control and 106 % of control | [15] 118 % of control and 111 % of control (2×)

Clc1nnc(-c2ccccc2)s1
inactive: [3] 101 % of control | [4] 91 % of control

C=CCn1c2ccccc2c2c(C)c3cnccc3c(C)c21
inactive: [12] 96 % of control and 102 % of control | [14] 100 % of control and 102 % of control | [3] 103 % of control and 104 % of control | [4] 113 % of control and 116 % of control

S=c1[nH]c2ccccc2nc1NCc1ccccc1
inactive: dose: 100.0 mg/kg/injection, schedule: Q04DX003 (ip), vehicle: other 91 % of control | dose: 200.0 mg/kg/injection, schedule: Q04DX003 (ip), vehicle: other 93 % of control | dose: 400.0 mg/kg/injection, schedule: Q04DX003 (ip), vehicle: other 93 % of control

Nc1nc(N)c(N=Nc2cccc(S(=O)(=O)O)c2)c(N)n1
inactive: [3] 107 % of control | [4] 101 % of control | [5] 101 % of control

CN(C)C(=O)N1CC1
inactive: [3] 98 % of control | [4] 98 % of control | [5] 106 % of control

FC1(F)C(Cl)=[C]([Hg][C]2=C(Cl)C(F)(F)C(F)(F)C2(F)F)C(F)(F)C1(F)F
inactive: dose: 75.0 mg/kg/injection, schedule: Q01DX001 (ip), vehicle: saline 98 % of control

CCCc1ccc(OC)cc1
inactive: [13] 103 % of control | [10] 97 % of control | [3] 98 % of control | [4] 94 % of control
